Reference: PMC5809120 (Journal of the American Chemical Society, 2018)

T1: PtNTT2(66-575) (Phaeodactylum tricornutum, UniProt B7FWL8)
T1 sequence (B7FWL8 66-575): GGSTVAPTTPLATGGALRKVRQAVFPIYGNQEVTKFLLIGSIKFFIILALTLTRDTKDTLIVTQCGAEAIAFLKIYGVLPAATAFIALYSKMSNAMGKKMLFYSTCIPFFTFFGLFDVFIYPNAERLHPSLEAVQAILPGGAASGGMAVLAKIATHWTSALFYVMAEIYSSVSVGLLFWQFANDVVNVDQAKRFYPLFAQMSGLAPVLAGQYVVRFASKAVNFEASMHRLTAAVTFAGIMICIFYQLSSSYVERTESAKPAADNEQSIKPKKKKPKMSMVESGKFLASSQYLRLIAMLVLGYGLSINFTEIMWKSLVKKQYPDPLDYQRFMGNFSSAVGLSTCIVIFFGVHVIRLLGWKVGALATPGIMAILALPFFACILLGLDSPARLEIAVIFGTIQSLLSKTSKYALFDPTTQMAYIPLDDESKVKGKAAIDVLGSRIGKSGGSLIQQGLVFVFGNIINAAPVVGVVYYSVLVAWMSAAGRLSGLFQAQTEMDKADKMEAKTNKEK

B1: PtNTT2(66-575) (Phaeodactylum tricornutum CCAP 1055/1) (protein)
chain: GGSTVAPTTPLATGGALRKVRQAVFPIYGNQEVTKFLLIGSIKFFIILALTLTRDTKDTLIVTQCGAEAIAFLKIYGVLPAATAFIALYSKMSNAMGKKMLFYSTCIPFFTFFGLFDVFIYPNAERLHPSLEAVQAILPGGAASGGMAVLAKIATHWTSALFYVMAEIYSSVSVGLLFWQFANDVVNVDQAKRFYPLFAQMSGLAPVLAGQYVVRFASKAVNFEASMHRLTAAVTFAGIMICIFYQLSSSYVERTESAKPAADNEQSIKPKKKKPKMSMVESGKFLASSQYLRLIAMLVLGYGLSINFTEIMWKSLVKKQYPDPLDYQRFMGNFSSAVGLSTCIVIFFGVHVIRLLGWKVGALATPGIMAILALPFFACILLGLDSPARLEIAVIFGTIQSLLSKTSKYALFDPTTQMAYIPLDDESKVKGKAAIDVLGSRIGKSGGSLIQQGLVFVFGNIINAAPVVGVVYYSVLVAWMSAAGRLSGLFQAQTEMDKADKMEAKTNKEK

Assays:
PtNTT2(66-575) = biological target: T1, PtNTT2(66-575); test: inhibition of [α-32P]ATP uptake into E. coli YZ2 cells; assay type: cell-based; conditions: read-out: % inhibition at 500 μM
[1] = substrate: Nc1ncnc2c1ncn2[C@@H]1O[C@H](COP(=O)(O)OP(=O)(O)OP(=O)(O)O)[C@@H](O)[C@H]1O; test: radiolabelled uptake into E. coli YZ2 cells, filter assay; assay type: cell-based, Phaeodactylum tricornutum; conditions: whole-cell uptake; labelled compound ([α-32P]ATP)

| Molecule | inhibition at 500 µM (PtNTT2(66-575)) | Km [1] |
| --- | --- | --- |
| Nc1nc2c(ncn2[C@H]2C[C@H](O)[C@@H](COP(=O)(O)OP(=O)(O)OP(=O)(O)O)O2)c(=O)[nH]1 [dGTP] | 55.3 ± 3.6% |  |
| Nc1nc(=O)n([C@@H]2O[C@H](COP(=O)(O)OP(=O)(O)OP(=O)(O)O)[C@@H](O)[C@H]2O)cc1CO [5-hmCTP] | 76.3 ± 2.9% |  |
| Nc1nc2c(ncn2COCCOP(=O)(O)OP(=O)(O)OP(=O)(O)O)c(=O)[nH]1 [ACVTP] | 68.6 ± 5.5% |  |
| Cc1cn([C@H]2C[C@H](N=[N+]=[N-])[C@@H](COP(=O)(O)OP(=O)(O)OP(=O)(O)O)O2)c(=O)[nH]c1=O [AZTTP] | 56.9 ± 12% |  |
| Nc1ccn([C@H]2C[C@H](O)[C@@H](COP(=O)(O)OP(=O)(O)OP(=O)(O)O)O2)c(=O)n1 [dCTP] | 76.3 ± 2.8% |  |
| Nc1nc2c(ncn2[C@@H]2O[C@H](COP(=O)(O)OP(=O)(O)OP(=O)(O)O)[C@@H](O)[C@H]2O)c(=O)[nH]1 [GTP] | 60.4 ± 1.4% |  |
| Nc1ccn([C@@H]2O[C@H](COP(=O)(O)OP(=O)(O)OP(=O)(O)O)[C@@H](O)[C@H]2O)c(=O)n1 [CTP] | 70.5 ± 4.9% |  |
| Nc1nc(=O)n([C@@H]2O[C@H](COP(=O)(O)OP(=O)(O)OP(=O)(O)O)[C@@H](O)[C@H]2O)cc1I [5-ICTP] | 96.6 ± 1.3% |  |
| Nc1nc2c(ncn2[C@@H]2O[C@H](COP(=O)(O)OP(=O)(O)OP(=O)(O)O)[C@@H](O)[C@@H]2O)c(=O)[nH]1 [Ara-GTP] | 47.8 ± 7.9% |  |
| Nc1nc(=O)n([C@H]2C[C@H](O)[C@@H](COP(=O)(O)OP(=O)(O)OP(=O)(O)O)O2)cc1I [5-IdCTP] | 73.6 ± 1.8% |  |
| Nc1ccn([C@@H]2O[C@H](COP(=O)(O)OP(=O)(O)OP(=O)(O)O)[C@@H](O)[C@@H]2O)c(=O)n1 [Ara-CTP] | 81.3 ± 5.2% |  |
| B1 |  | 186.0 ± 21.1 µM |
